# From patent publication US8702684B2, “Therapeutic hybrid implantable devices” (University of Miami, priority 2007, dated 2014)
# “Also recorded” adds a separate entry of the source.
# Assays:
# Format in all cases: in vivo, rat
# [1] = system: islet allografts in diabetic Lewis rats; experiment: Allogeneic islet graft survival in hybrid devices with local immunosuppression via micro-osmotic pump after weaning of systemic immunosuppression; conditions: local delivery by micro-osmotic pump 0.25 microL/h, dexamethasone phosphate 20 mg/L, loteprednol etabonate 0.2, 0.5, 10 mg/L, S1P receptor agonist 50 mg/L, controls rejected within 2 weeks of stopping systemic immunosuppression
# From the text: Forty days before islet transplantation, the rats were implanted with a hybrid device of the invention with a plunger-containing device in the subcutaneous space as described in Example 3. Allogeneic islets (7,000 IE isolated from Wistar Furth rats) were then deposited into the neovascularized spaces of the hybrid devices, and after the transplantation, the animals' glucose levels were monitored daily as described in Examples 1 and 3. Post-transplantation, all animals received systemic immunosuppression treatment consisting of a single-dose induction treatment with T-cell depleting anti-lymphocyte serum (ALS) given intravenously on day −3. Starting on the day of islet transplantation, systemic maintenance immunosuppression with mycophenolic acid (MPA, 20 mg/kg) was given daily orally for at least three weeks. […] After at least two weeks of treatment, systemic immunosuppression was tapered and discontinued, while the local immunosuppression was maintained. For example, a typical weaning protocol of systemic treatment consisted of 25% reduction of MPA for two consecutive days over an 8-day period. FIG. 25 illustrates an experimental protocol of transient systemic immunosuppression combined with local extended immunotherapy.
# Starting on the day of islet transplantation, animals also received local immunosuppression delivered using a micro-osmotic pump such as the Alzet® 100 microL volume, 2-week continuous infusion, 0.25 microL/h delivery rate model 1002 pump (Durect Corp., Cupertino, Calif.). Both the device and the pump were implanted in the dorsal region of the rodents, and they were connected via a PE tubing. Animals were divided into controls receiving either local saline or no treatment and treatment groups receiving various immunosuppressive agents such as, for example, dexamethasone phosphate (20 mg/L), loteprednol etabonate (0.2, 0.5, and 10 mg/L), or a sphingosine-1-phosphate (S1P) receptor agonist (50 mg/L) from the micro-osmotic pump.
# [2] = system: already-engrafted syngeneic islet grafts in rats; experiment: Effect of systemic immunosuppression on already-engrafted functional syngeneic islet grafts; conditions: for animals returning to normoglycemia / recovering function after drug withdrawal: after 40 days treatment
# [3] = system: syngeneic islet grafts in chemically-diabetic Lewis rats; experiment: Effect of systemic immunosuppression given from day of syngeneic islet transplantation on engraftment and graft function in hybrid devices; conditions: for animals achieving normoglycemia at later times after withdrawal of immunosuppression: fraction of animals in group, single-drug treatment; for graft function while under treatment: syngeneic islets 3,000 IEQ, treatment from day of transplantation for 40 days, controls normoglycemic long-term
# Method: To assess the impact of conventional systemic immunosuppression on islet engraftment and function in prevascularized hybrid devices, we carried out syngeneic islet transplantation in chemically-diabetic Lewis rats that were treated with either rapamycin or tacrolimus (alone or in combination) as described in Example 3, starting from the day of islet transplantation, for 40 days. Control animals received no treatment.
compound,measurement,setting,value
CCOC(=O)O[C@]1(C(=O)OCCl)CC[C@H]2[C@@H]3CCC4=CC(=O)C=C[C@]4(C)[C@H]3[C@@H](O)C[C@@]21C [loteprednol etabonate],allograft survival compared to control animals,[1],clear extension of allograft survival; also recorded: sizable extension of allograft survival
C[C@@H]1C[C@H]2[C@@H]3CCC4=CC(=O)C=C[C@]4(C)[C@@]3(F)[C@@H](O)C[C@]2(C)[C@@]1(O)C(=O)COP(=O)(O)O [dexamethasone phosphate],allograft survival compared to control animals,[1],clear extension of allograft survival
same,allograft survival compared to control animals,[1]; listed as dexametasone phosphate,sizable extension of allograft survival
"CO[C@H]1C[C@@H]2CC[C@@H](C)[C@@](O)(O2)C(=O)C(=O)N2CCCC[C@H]2C(=O)O[C@H]([C@H](C)C[C@@H]2CC[C@@H](O)[C@H](OC)C2)CC(=O)[C@H](C)/C=C(\C)[C@@H](O)[C@@H](OC)C(=O)[C@H](C)C[C@H](C)/C=C/C=C/C=C/1C [rapamycin, sirolimus]",animals returning to normoglycemia / recovering function after drug withdrawal,[2]; already-engrafted graft,returned to normoglycemia
same,animals displaying dysfunction while under treatment,"[2]; fraction of animals, 40 days treatment of already-engrafted graft",⅓
same,animals achieving normoglycemia at later times after withdrawal of immunosuppression,[3],¼
same,graft function while under treatment,[3],only partial function or primary non-function; also recorded: only partial or primary non-function
C=CC[C@@H]1/C=C(\C)C[C@H](C)C[C@H](OC)[C@H]2O[C@@](O)(C(=O)C(=O)N3CCCC[C@H]3C(=O)O[C@H](/C(C)=C/[C@@H]3CC[C@@H](O)[C@H](OC)C3)[C@H](C)[C@@H](O)CC1=O)[C@H](C)C[C@@H]2OC [tacrolimus],graft function under systemic immunosuppression administered for 40 days,"[2]; already-engrafted graft, >=40 days post implantation",impaired graft function
same,animals returning to normoglycemia / recovering function after drug withdrawal,[2]; already-engrafted graft,⅓
same,animals achieving normoglycemia at later times after withdrawal of immunosuppression,[3],¼
same,graft function while under treatment,[3],only partial function or primary non-function; also recorded: only partial or primary non-function
